# Biological target: Glycogen synthase kinase-3 beta (Homo sapiens, UniProt P49841)
# Assay: Inhibitory concentration against human Glycogen synthase kinase-3
# Glycogen synthase kinase-3 beta, sequence (P49841 whole entry): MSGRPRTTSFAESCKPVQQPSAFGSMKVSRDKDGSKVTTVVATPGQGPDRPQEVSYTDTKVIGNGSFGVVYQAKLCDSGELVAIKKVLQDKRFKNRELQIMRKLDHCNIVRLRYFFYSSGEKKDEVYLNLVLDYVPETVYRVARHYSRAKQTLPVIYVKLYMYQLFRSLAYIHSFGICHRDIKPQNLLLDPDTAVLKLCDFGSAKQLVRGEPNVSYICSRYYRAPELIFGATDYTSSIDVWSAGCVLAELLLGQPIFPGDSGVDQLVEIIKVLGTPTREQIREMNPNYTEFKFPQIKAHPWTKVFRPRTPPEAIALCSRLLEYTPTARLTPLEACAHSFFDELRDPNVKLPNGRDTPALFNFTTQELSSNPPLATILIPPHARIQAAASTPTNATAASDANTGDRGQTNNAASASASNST
row,IC50 [µM],Compound
1,> 250,O=C(O)Cc1ccc(CSc2nnc(-c3ccccn3)s2)cc1
2,> 250,O=C(O)Cc1ccc(CSc2nnc(-c3cccnc3)s2)cc1
3,0.82,Clc1cccc(CSc2nnc(-c3ccncc3)o2)c1
4,> 250,O=C(O)Cc1ccc(CSc2n[nH]c(-c3ccncc3)n2)cc1
5,235,O=C(O)c1cccc(CSc2nnc(-c3ccncc3)o2)c1
6,6.7,c1ccc(CSc2nnc(-c3ccncc3)o2)cc1
7,29,O=C(O)c1ccc(CSc2nnc(-c3ccncc3)o2)cc1
8,11,O=C(O)Cc1ccc(CSc2nnc(-c3ccncc3)s2)cc1

# Further lines, the compound ahead of its results:
row,Compound,IC50 [µM]
1,Fc1cccc(CSc2nnc(-c3ccncc3)o2)c1,1.4
2,c1ccc(CCSc2nnc(-c3ccncc3)o2)cc1,29
3,Ic1ccc(CSc2nnc(-c3ccncc3)o2)cc1,198
4,COC(=O)c1cccc(CSc2nnc(-c3ccncc3)o2)c1,1.1
5,O=C(Cc1ccc(CSc2nnc(-c3ccncc3)o2)cc1)NCCc1ccccc1F,1.2
6,Clc1ccccc1CSc1nnc(-c2ccncc2)o1,12
7,O=C(O)Cc1ccc(CSc2nnc(-c3ccncc3)o2)cc1,8
8,Cc1nc(-c2cccc(CSc3nnc(-c4ccncc4)o3)c2)no1,> 250

# Source: ChEMBL document CHEMBL1135133, “Scaffold hopping and optimization towards libraries of glycogen synthase kinase-3 inhibitors” (Bioorg Med Chem Lett, 2002)
